From article PMC6965176, “Targeting Forward and Reverse EphB4/EFNB2 Signaling by a Peptide with Dual Functions” (Scientific Reports, 2020)
Non-standard residues stand in square brackets, D forms with d. Residues, ends and D or L forms follow the SMILES beside them.

Key:
[1] = target: T1, EphB4 on the surface of A2780cp20 cells (Homo sapiens, UniProt P54760); assay: Cell-based binding assay: displacement of EFNB2-Fc from A2780cp20 cells (flow cytometry); details: EFNB2-Fc 20 nM, BIDEN-AP 0-100 µM, 25 °C, 1 h, PE-anti-Fc flow cytometry, duplicate (Fig. 1D,E)
T1 construct: endogenous in cells; host or cells: A2780cp20 ovarian cancer cells
T1 sequence (P54760 16-987): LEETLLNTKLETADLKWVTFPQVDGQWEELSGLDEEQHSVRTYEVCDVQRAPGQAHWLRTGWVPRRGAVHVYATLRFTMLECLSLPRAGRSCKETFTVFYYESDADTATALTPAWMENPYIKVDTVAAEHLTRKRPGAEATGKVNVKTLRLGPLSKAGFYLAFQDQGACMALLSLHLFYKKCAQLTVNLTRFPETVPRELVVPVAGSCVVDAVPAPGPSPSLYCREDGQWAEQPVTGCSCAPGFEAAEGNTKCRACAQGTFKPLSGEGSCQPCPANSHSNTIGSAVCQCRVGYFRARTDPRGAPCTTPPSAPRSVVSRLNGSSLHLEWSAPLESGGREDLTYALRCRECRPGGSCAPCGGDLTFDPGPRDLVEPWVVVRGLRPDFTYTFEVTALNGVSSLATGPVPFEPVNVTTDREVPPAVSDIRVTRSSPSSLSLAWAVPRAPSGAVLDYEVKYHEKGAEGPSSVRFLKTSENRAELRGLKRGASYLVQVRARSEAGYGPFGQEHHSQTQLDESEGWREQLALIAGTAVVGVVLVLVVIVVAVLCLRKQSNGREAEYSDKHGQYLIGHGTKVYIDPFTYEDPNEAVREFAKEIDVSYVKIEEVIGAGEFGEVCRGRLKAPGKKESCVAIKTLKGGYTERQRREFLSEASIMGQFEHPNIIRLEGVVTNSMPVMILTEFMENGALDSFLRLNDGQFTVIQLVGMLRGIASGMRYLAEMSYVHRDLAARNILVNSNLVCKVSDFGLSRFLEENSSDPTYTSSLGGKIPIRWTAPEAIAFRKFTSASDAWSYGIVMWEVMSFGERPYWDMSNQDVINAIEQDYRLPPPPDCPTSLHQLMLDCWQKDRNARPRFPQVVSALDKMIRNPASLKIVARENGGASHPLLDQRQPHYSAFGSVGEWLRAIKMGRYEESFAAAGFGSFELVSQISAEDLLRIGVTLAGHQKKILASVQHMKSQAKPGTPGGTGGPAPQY
Procedure: Figure 1 Novel EphB4 agonist BIDEN-AP has high receptor binding affinity. (A) Structure of BIDEN-AP. D-Tyr-P3 is highlighted in red. (B) Surface plasmon resonance (SPR) sensorgrams of BIDEN-AP. Vertical axes, in response units (RU), represent binding of the peptide to immobilized EphB4. (C) Competition of BIDEN-AP with EFNB2-Fc for EphB4 binding. BIDEN-AP at concentrations from 2 nM to 1000 nM was mixed with human EphB4 (30 nM) and injected onto sensor chips coated with EFNB2-Fc. (D) Competition of BIDEN-AP with EFNB2-Fc for EphB4 binding at the cellular level. A2780cp20 cells were co-incubated with EFNB2-Fc (20 nM) and BIDEN-AP (at concentrations from 0 to 100 µM) at 25 °C for 1 h. EFNB2-Fc bound to the cells was probed with phycoerythrin-labeled anti-Fc antibody and analyzed by flow cytometry. (E) Bound EFNB2-Fc as a function of BIDEN-AP concentration. […]
A2780cp20 ovarian cancer cells (1×10^6 cells/mL) were incubated with EFNB2-Fc (20 nM) and BIDEN-AP at concentrations ranging from 0 to 100 µM at 25 °C for 1 h. After washings, EFNB2-Fc bound to the cells were probed with phycoerythrin (PE)-labeled anti-Fc antibody and analyzed by flow cytometry. Binding of BIDEN-AP to A2780cp20 cells was determined by its capacity to displace EFNB2-Fc’s binding to the tumor cells, measured by decreased PE fluorescence signal. Cells were analyzed in a Cellquest fluorocytometer (BD Bioscience, San Jose, CA). […]

MDA-HGSC-1 PDX tumor = assay: Subcutaneous MDA-HGSC-1 patient-derived xenograft model; type: in vivo, mice; details: 300 µg/injection i.p., 14 doses (Fig. S10B)
Source text: Under Institutional Review Board (IRB protocol PA15-0441) and IACUC approval at MD Anderson Cancer Center, patients with HGSC who were being treated at MD Anderson gave consent for the use of their tumor tissue in this study. Four- to six-week-old female Balb C athymic nude mice (Harlan Laboratories) were implanted with one PDX 3×3×3 mm tumor cube (MDA-HGSOC-1 high-grade serous ovarian cancer; generation 9) in the dorsal flank to create subcutaneous HGSC-PDX model. Tumor size was monitored by caliber, and tumor volume was calculated using the formula V(cm^3) = (length x width^2)/2. Mice were randomly assigned to the PBS vehicle control or BIDEN-AP treatment group, 6 mice per group, once tumor size reached ~100 mm^3 (21 days after implantation). Treatments consisted of intraperitoneal injection of PBS or BIDEN-AP at 300 μg/injection (100 μL/injection) once every other day for a total of 14 doses. At the end of the study (day 49), all mice were euthanized, and tumors were collected, weighed, snap-frozen in optimal cutting temperature compound with liquid nitrogen, and cryosectioned into 5-μm sections for immunohistochemical staining of CD31 and Ki67 markers.
incubated overnight at 4°C.
Slides were subjected to recombinant terminal
The slides were then labeled by adding
Microvessel density was evaluated
magnification from three tumor samples.
For CD31 staining, slides were […]

CC[C@H](C)[C@H](NC(=O)[C@@H]1CCCN1C(=O)CNC(=O)[C@H](CC(N)=O)NC(=O)[C@@H]1CCCN1C(=O)[C@H](CO)NC(=O)[C@H](Cc1ccccc1)NC(=O)[C@H](CC(C)C)NC(=O)[C@@H](Cc1ccc(O)cc1)NC(=O)[C@H](CC(N)=O)NC(=O)[C@@H](N)[C@@H](C)O)C(=O)N[C@@H](C)C(=O)N[C@@H](CCCNC(=N)N)C(=O)N[C@@H](C)C(=O)N[C@@H](Cc1c[nH]c2ccccc12)C(N)=O [BIDEN-AP] (H-TN[dY]LFSPNGPIARAW-NH2)
IC50 [1]: ~1 µM | body weight change compared to control group (MDA-HGSC-1 PDX tumor): did not cause body weight change
